Assay results as given in patent US10471028B2, “Small molecule efflux pump inhibitors” (UNIVERSITY OF ROCHESTER, priority 2014, dated 2019).

What was measured:
[1] = tested on: A. baumannii strain 98-37-09; test: MEC determination: potentiation of minocycline toward serum grown A. baumannii; assay type: cell-based, Acinetobacter baumannii; conditions: for Log-reduction Colony Forming Units (ml^−1): 1×MEC of compound plus minocycline in serum, versus minocycline alone, plating; for MEC: lowest concentration inhibiting growth in 100% human serum with 0.5 μg ml^−1 minocycline, 48 hr
Description: The TimTec ActiProbe-25K diversity-set and Natural Product compound libraries (29,900 compounds total; TimTec, Newark, Del.) were initially screened for putative efflux pump inhibitors by identifying compounds that potentiated the antimicrobial property of a sub-inhibitory concentration of minocycline toward A. baumannii grown in human serum. To do so, A. baumannii strain 98-37-09 was grown for 16 hours in LB medium at 37° C. on a rotary shaker at 225 rpm. Approximately 1×10^5 CFU were then transferred to individual wells of a 96-well round-bottom plate (Corning Costar, Tewksbury, Mass.) containing 100 μL of human serum supplemented with of minocycline (0.5 μg mL^−1; 0.5× minimum inhibitory concentration in serum) and individual members of the Timtec ActiProbe or Natural product library (50 μM). Plates were then incubated at 37° C. for 48 hours. Growth was measured as a function of turbidity. Putative efflux pump inhibitors were identified as compounds that inhibited A. baumannii growth in human serum containing minocycline and were subsequently retested in triplicate, as indicated above. Untreated A. baumannii grown in serum supplemented with minocycline+/−PAβN served as positive and negative controls, respectively. […] Repeat testing in which well constituents were serial diluted and plated on LB agar plates validated that 85 compounds did indeed limit A. baumannii growth in serum supplemented with minocycline, reducing the number of viable colony forming units between 2-6 log cfu in comparison to minocycline alone treated cells.
The MEC was defined as the lowest concentration of test compound required to inhibit the growth of A. baumannii in serum in the presence of 0.5 μg ml^−1 minocycline. Plating confirmed that addition of 1×MEC of each compound elicited ≥1.9-log reduction in A. baumannii cells grown in serum supplemented with minocycline alone (see Table 1).

[2] = tested on: A. baumannii strain 98-37-09; test: Cellular accumulation of minocycline (HPLC, triple-quadrupole MS); assay type: cell-based, Acinetobacter baumannii; conditions: human serum with 0.5 μg mL^−1 minocycline plus test compound (0.5×MEC, 1×MEC), 48 hours
Description: High pressure liquid chromatography and triple-quadrupole mass spectrometry were used to measure the A. baumannii intracellular levels of minocycline during growth in human serum in the absence and presence of each putative efflux pump inhibitor. […] Cultures were incubated for 48 hours with shaking, at which point an aliquot was removed, serially diluted, and plated to determine the number of viable CFU per mixture. The remainder of the cells were pelleted by centrifugation at 900×g at 4° C., washed twice in PBS, mechanically lysed with a FastPrep cell disrupter (MP Biomedicals, Santa Ana, Calif.) for 20 seconds at 5 m s^−1 and the cellular debris was pelleted via centrifugation at 900×g and 4° C. The amount of minocycline present within the supernatant of ruptured cells was measured. Briefly, doxycycline (0.5 μg mL^−1) was first added to each supernatant to serve as an internal control to account for sample-to-sample preparation variability. The supernatant was then combined with acetonitrile (ACN) at a 1:10 ratio and centrifuged at 16,000×g, at 4° C., to collect minocycline and doxycycline. […] residual liquid was evaporated in a speed vacuum for 2 hours at 8,000×g. To quantify the amount of antibiotics retained, sample materials were suspended in 50% acetonitrile, filtered through a 0.2 μm low protein binding hydrophilic membrane (Millipore, Billerica, Mass.) then separated on Shimadzu high performance liquid chromatography instrument (Fisher Scientific) using a BetaBasic C18 reverse phase column (Thermo Scientific). Separation was carried out with two mobile phase solutions consisting of solution (A) water with 0.1% formic acid and solution (B) 100% ACN. The gradient profile of the chromatography runs was as follows: from 0 to 0.1 min 8% solution B, ramp step wise (37% to 60% solution B) from 0.1 to 6.5 min then holding for one minute before ramping down from 60% to 10% from 7.5 to 8 min. This was followed a hold at 10% solution B for one minute. […] The column was equilibrated in 8% solution B at 40° C. and the flow rate was set to 0.2 mL min^−1. Mass spectrometry analysis of fractions was carried out using a Thermo TSQ Quantum Ultra triple quadrupole mass spectrometer (Fisher Scientific). Data were analyzed using Xcalibur software (Thermo Scientific); the following parameters were used to detect minocycline and the internal control doxycycline: 458.208 m/z→282.971 m/z (collision energy=43, tube lens=119) for minocycline and 445.144 m/z→266.900 m/z (collision energy=39, tube lens=127) for doxycycline. Analysis of the raw data was conducted by using the area under the curve calculations with the Genesis algorithm to determine the concentration in each sample. The difference between the peak intensity and the y intercept of pre-established minocycline and doxycycline standard curves was divided by the slope of the standard curve to quantify the amount of minocycline within each sample. The total concentration of minocycline within each cell was calculated by normalizing to the number of cells within each corresponding culture.

human HepG2 cells = test: MTT cell viability (cytotoxicity) assay
Description: To distinguish putatively non-toxic from human cytotoxic compounds, conventional 3-(4,5-dimethylthiazol-2yl)-2,5-diphenyltetrazolium bromide (MTT) cell viability assays (American Type Culture Collection, Manassas, Va.) were performed for each compound of interest at 1× and 4× their MEC. Briefly, human HepG2 cells were grown to approximately 1×10^6 cells per well in Dulbecco's Modified Eagle Media supplemented with 10% fetal bovine serum (Invitrogen, Carlsbad, Calif.) then treated with 1× or 4× the MEC of the indicated […] Cell viability was measured following the addition of the tetrazolium salt (MTT) as per the manufacturer's recommendations; cells challenged with 50 ug ml^−1 Mitomycin C (Sigma Aldrich) and mock-treated cells served as positive and negative controls, respectively.

[3] = tested on: A. baumannii strain 98-37-09; test: Potentiation of ciprofloxacin toward serum grown A. baumannii; assay type: cell-based, Acinetobacter baumannii; conditions: 100% human serum, 0.125 μg ml^−1 ciprofloxacin, 1× or 2× MEC, 48 hour, growth inhibition
Source text: As a means to further prioritize non-toxic compounds of interest based on their therapeutic promise, it was considered that broad spectrum antimicrobial efflux pump inhibitors may be more clinically valuable than narrow-spectrum agents that only potentiate the activity of a limited number of antibiotics or that display activity toward a single bacterial species. […] To do so, 1×10^5 A. baumannii strain 98-37-09 were inoculated into individual wells of microtiter plates containing 100% human serum supplemented with 0.125 μg ml^−1 ciprofloxacin and 0, 1×, or 2× the compound's MEC, as defined by the lowest concentration needed to potentiated minocycline's antimicrobial effects (above). Plates were incubated for 48 hour at which point each compound's ability to potentiate ciprofloxacin was measured, as growth inhibition.

A. baumannii = test: Antibiotic susceptibility assay in LB medium or 100% human serum; assay type: cell-based, Acinetobacter baumannii
Description: The antibiotic susceptibility of A. baumannii and Pseudomonas aeruginosa grown in either LB medium or 100% human serum was measured according to the method described below. Briefly, the indicated bacterial species/strain was grown overnight in LB medium, diluted into fresh medium (1:100 dilution) and grown to mid-exponential phase (OD600nm=0.4 to 0.5) at 37° C. with aeration. […] To quantify the antimicrobial effects of each antibiotic toward bacteria grown in LB or serum, well constitutes were serially diluted in PBS and plated on LB agar to enumerate the CFU mL^−1.

SMILES | Log-reduction Colony Forming Units (ml^−1) [1] [log] | MEC [1] [µg/mL] | Minocylcine Per Cell (femtomoles cell^−1) [2] [femtomoles cell^−1] | % Viability (human HepG2 cells) [%] | Potentiate Ciprofloxacin A. baumannii [3] | susceptibility of serum grown versus LB grown cells (A. baumannii; strain 98-37-09, ciprofloxacin ≤1 μg ml^−1) | restoration of tigecycline susceptibility in serum (A. baumannii; strain 01-12-05, addition of efflux pump inhibitor) | restoration of ciprofloxacin susceptibility in serum (A. baumannii; strain 98-37-09, serum supplemented with efflux pump inhibitor) | cell viability, LB grown (A. baumannii; 4-16 μg ml^−1 tetracycline, LB) | concentration with clear antimicrobial activity (A. baumannii; strain 01-12-05, LB medium) [µg/mL] | susceptibility during growth in serum (A. baumannii; strain 01-12-05, human serum)
C/C(=N\NC(=O)c1ccccc1F)c1ccccc1O [ST033061] | 2.18 | 2 | 1.96E−04 | 77.58 | No |  |  |  |  |  | 
N#Cc1c(/N=C/c2ccc([N+](=O)[O-])o2)sc2c1CCCC2 [ST033065] | 2.44 | 2 | 2.06E−05 | 75.6 | No |  |  |  |  |  | 
O=C(N/N=C/c1ccc2c(c1)OCO2)c1ccccc1O [ST033341] | 2.42 | 2 | 3.39E−05 | 75.88 | No |  |  |  |  |  | 
Cc1cccc(N(CC(=O)Nc2ccc(Cc3ccncc3)cc2)S(=O)(=O)c2ccccc2)c1 [ST034014] | 2.37 | 2 | 5.46E−04 | 84.27 | No |  |  |  |  |  | 
COc1ccc(C2N(Cc3ccccc3)CCN2Cc2ccccc2)cc1 [ST036291] | 3.31 | 2 | 5.5E−05 | 75.74 | No |  |  |  |  |  | 
COC(=O)CCC(=O)Nc1ccc(S(N)(=O)=O)cc1 [ST040289] | 4.32 | 4 | 8.38E−04 | 78.8 | No |  |  |  |  |  | 
Cc1ccc(C2N(Cc3ccccc3)CCCN2Cc2ccccc2)o1 [ST048001] | 7.06 | 32 | 1.99E−04 | 82.72 | No |  |  |  |  |  | 
COc1ccc2c(c1)CCC(C)N2S(=O)(=O)c1ccc(C2CNC(=O)C2)cc1 (stereo not drawn) [ST058899] | 6.21 | 64 | 1.08E−04 | 80.69 | No |  |  |  |  |  | 
Nc1ccc(S(=O)(=O)Nc2ncccn2)cc1 [ST059447] | 5.74 | 4 | 4.52E−05 | 76.78 | No |  |  |  |  |  | 
O=C1c2ccccc2C(=O)N1CCN1CCNCC1 [ST059581] | 6.12 | 32 | 5.64E−05 | 84.56 | No |  |  |  |  |  | 
COc1cc(C(=O)Nc2ccccc2C(=O)NCC2CCCO2)cc(OC)c1OC (stereo not drawn) [ST060053] | 4.94 | 4 | 1.78E−04 | 76.11 | No |  |  |  |  |  | 
COC(=O)c1ccc(COc2ccc(-c3nnn[nH]3)cc2)cc1 [ST060272] | 6.90 | 32 | 3.67E−07 | 85.35 | No |  |  |  |  |  | 
O=C(O)c1cn(C2CC2)c2cc(N3CCNCC3)c(F)cc2c1=O [ciprofloxacin] |  |  |  |  |  | significantly (P<0.001) less susceptible |  |  |  |  | 
COC(=O)[C@H]1[C@H]2C[C@@H]3c4[nH]c5cc(OC)ccc5c4CCN3C[C@H]2C[C@@H](OC(=O)c2cc(OC)c(OC)c(OC)c2)[C@@H]1OC [reserpine] |  |  |  |  |  |  | partially restored | Ciprofloxacin susceptibility could be restored |  |  | 
CN(C)[C@@H]1C(O)=C(C(N)=O)C(=O)[C@@]2(O)C(O)=C3C(=O)c4c(O)cccc4[C@@](C)(O)[C@H]3C[C@@H]12 [tetracycline] |  |  |  |  |  |  |  |  | < 1×10^1 colony forming units |  | 
CN(C)c1cc(NC(=O)CNC(C)(C)C)c(O)c2c1C[C@H]1C[C@H]3[C@H](N(C)C)C(O)=C(C(N)=O)C(=O)[C@@]3(O)C(O)=C1C2=O [tigecycline] |  |  |  |  |  |  |  |  |  | ≥ 1 | highly-resistant
